From patent US20220242812A1, “SWELL1-LRRC8 COMPLEX MODULATORS” (Washington University, priority 2019, published 2022)

Legend:
[1] = target: T1, closed SWELL1-LRRC8 channel in HEK-293 cells (Homo sapiens, UniProt Q8IWT6); test: ICl,SWELL inhibition on application to the closed SWELL1-LRRC8 channel (30 min preincubation), HEK-293 cells; format: cell-based; details: 30 minutes prior to hypotonic activation
T1 construct: endogenous in cells; host or cells: HEK-293 (ATCC CRL-1573)
Protocol: Patch-clamp recordings of β-cells and mature adipocytes were performed as described previously (Kang et al., 2018; Zhang et al., 2017). 3T3-F442A WT and KO preadipocytes were prepared as described in the Cell culture section above. For SWELL1 overexpression recordings, preadipocytes were first transduced with Ad5-CAG-LoxP-stop-LoxP-3×Flag-SWELL1 (MOI 12) in 2% FBS culture medium for two days and then overexpression induced by adding Ad5-CMV-Cre-wt-lRES-eGFP (MOI 10-12) in 2% FBS culture medium for two more days and changed to 10% FBS containing culture media and were selected based on GFP expression (˜2-3 days). For cell recordings, islets were transduced with Ad-RIP2-GFP and then dispersed after 48-72 hours for patch-clamp experiments. GFP+ cells marked β-cells selected for patch-clamp recordings. […] Recordings were measured using […] amplifier paired to a Digidata 1550 digitizer using pClamp 10.4 software. The extracellular buffer composition for hypotonic stimulation contains 90 mM NaCl, 2 mM CsCl, 1 mM MgCl, 1 mM CaCb, 10 mM HEPES, 10 mM Mannitol, pH 7.4 with NaOH (210 mOsm/kg). The extracellular isotonic buffer composition is same as above except for Mannitol concentration of 110 mM (300 mOsm/kg). The composition of intracellular buffer is 120 mM L-aspartic acid, 20 mM CsCl, 1 mM MgCl, 5 mM EGTA, 10 mM HEPES, 5 mM MgATP, 120 mM CsOH, 0.1 mM GTP, pH 7.2 with CsOH. All recordings were carried out at room temperature (RT) with HEK-293 cells, β-cells and 3T3-F442A cells performed in whole-cell configuration and human adipocytes in perforated-patch configuration, as previously described (Kang et al., 2018; Zhang et al., 2017).

[2] = system: endogenous SWELL1 plasma membrane localization; format: cell-based; details: 3T3-F442A preadipocytes, 1 or 10 μM 48 h, compared to vehicle or SN071
Protocol: 3T3-F442A preadipocytes (WT, KO) and differentiated adipocytes without or with SWELL1 overexpression (WT+SWELL1 O/E, KO+SWELL1 O/E) were prepared as described in the Cell culture section on collagen coated coverslips. […] Either anti-SWELL1 (1:400) or anti-Flag (1:1500, Sigma #F3165) antibody were added to the cells and incubated overnight at 4° C. The cells were then washed three times (1×PBS) prior and post to the addition of 1:1000 Alexa Flour 488/568 secondary antibody (anti-rabbit, #A11034 or anti-mouse, #A11004) for 1 hour at RT. Cells were counterstained with nuclear TO-PRO-3 (Life Technologies, #T3605) or DAPI (Invitrogen, #D1306) staining (1 μM) for 20 min followed by three washes with 1×PBS. Coverslips were further mounted on slides with Prolong Diamond anti-fading media. All images were captured using Zeiss LSM700/LSM510 confocal microscope with 63× objective (NA 1.4). SWELL1 membrane localization was quantified by stacking all the z-images and converting it into a binary image where the cytoplasmic intensity per unit area was subtracted from the total cell intensity per unit area using ImageJ software.

SWELL1 protein = SWELL1 protein (Mus musculus, UniProt Q80WG5); test: Glucolipotoxic stress (palmitate + glucose) SWELL1 protein in 3T3-F442A adipocytes; details: 10 μM 96 h, 1 mM palmitate + 25 mM glucose
HFD-induced T2D mice = test: Metabolic phenotyping (fasting glucose, GTT, ITT) in HFD-fed T2D mice; format: in vivo
Protocol: All compounds were dissolved in Kolliphor® EL (Sigma, #C5135).
Mice were fasted for 6 h prior to glucose tolerance tests (GTT). Baseline glucose levels at 0 min timepoint (fasting glucose, FG) were measured from blood sample collected from tail snipping using glucometer (Bayer Healthcare LLC). Either 1 g or 0.75 g D-Glucose/kg body weight were injected (i.p.) for lean or HFD mice, respectively and glucose levels were measured at 7, 15, 30, 60, 90 and 120 min timepoints after injection. For insulin tolerance tests (ITTs), the mice were fasted for 4 h. […] All mice and treatment groups were assessed blindly while performing experiments.

[3] = system: islets, glucose-stimulated insulin secretion; test: Islet perifusion GSIS assay, islets from treated T2D mice; format: in vivo
Protocol: For patch-clamp studies involving primary mouse cells, the mice were anesthesized by injecting Avertin (0.0125 g/ml in H2O) followed by cervical dislocation. […] Perifusion buffer contained (in mM): 120 NaCl, 24 NaHCO3, 4.8 KCl, 2.5 CaCl, 1.2 MgSO4, 10 HEPES, 2.8 glucose, 27.2 mannitol, 0.25% w/v bovine serum albumin, pH 7.4 with NaOH (300 mOsm/kg). Perifusion buffer kept at 37° C. was circulated at 120 μI/min After 48 min of washing with 2.8 mM glucose solution for stabilization, islets were stimulated with the following sequence: 16 min of 16.7 mM glucose, 40 min of 2.8 mM glucose, 10 min of 30 mM KCl, and 12 min of 2.8 mM glucose. Osmolarity was matched by adjusting mannitol concentration when preparing solution containing 16.7 mM glucose. Serial samples were collected either every 1 or 2 min into 96 wells kept at 4° C. Insulin concentrations were further determined using commercially available ELISA kit (Mercodia). The area under the curve (AUC) for the high-glucose induced insulin release was calculated for time points between 50 to 74/84 min. At the completion of the experiments, islets were further lysed by addition of RIPA buffer and the amount of insulin was detected by ELISA.

[4] = HFD-induced T2D mice, 5 mg/kg i.p. 4-10 days
[5] = after 16 weeks of HFD feeding, vs vehicle
[6] = HFD 12-18 weeks, 5 mg/kg/day x 4 days, pre- vs post-treatment

| SMILES | Subsequent hypotonic SWELL1-LRRC8 activation ([1]; 250 nM) | Subsequent hypotonic SWELL1-LRRC8 activation ([1]; 1 μM) | Plasma membrane (PM) localization of endogenous SWELL1 [2] | Prevention of palmitate/glucose-induced SWELL1 protein reduction (SWELL1 protein) | Glucose tolerance (HFD-induced T2D mice; HFD-T2D mice, daily i.p. for 8 weeks (FIG. 31D)) | Fasting blood glucose (FG) (HFD-induced T2D mice; [4]) | Glucose tolerance (GTT) (HFD-induced T2D mice; [4]) | Insulin-tolerance (ITT) (HFD-induced T2D mice; [4]) | ITT (HFD-induced T2D mice; after 16 weeks of HFD feeding (ITT at 18 weeks), vs vehicle) | FG (HFD-induced T2D mice; [5]) | GTT (HFD-induced T2D mice; [5]) | Perifusion GSIS from isolated islets ([3]; HFD mice, 21 weeks HFD) | Fasting blood glucose (HFD-induced T2D mice; [6]) | Glucose tolerance (HFD-induced T2D mice; [6]) | Insulin sensitivity based on HOMA-IR (HFD-induced T2D mice; HFD T2D mice, compared to SN071) | Glucose tolerance (HFD-induced T2D mice; HFD T2D mice, separate experiment, compared to SN071) | Insulin secretion in perifusion GSIS ([3]; islets of HFD T2D mice, compared to SN071) |
| --- | --- | --- | --- | --- | --- | --- | --- | --- | --- | --- | --- | --- | --- | --- | --- | --- | --- |
| CCCCC1(C2CCCC2)Cc2cc(OCCCC(=O)O)c(Cl)c(Cl)c2C1=O (stereo not drawn) [SN-401, 4-((2-butyl-6,7-dichloro-2-cyclopentyl-1-oxo-2,3-dihydro-1H-inden-5-yl)oxy)butanoic acid] | markedly suppresses and delays | markedly suppresses and delays | enhanced | entirely prevented | striking effects | normalized | normalized | markedly improved | marked improvements | marked improvements | marked improvements | significantly improved |  |  |  |  |  |
| CCCCC1(C2CCCC2)Cc2cc(OCCCCCC(=O)O)c(Cl)c(Cl)c2C1=O (stereo not drawn) [SN-406, 6-((2-butyl-6,7-dichloro-2-cyclopentyl-1-oxo-2,3-dihydro-1H-inden-5-yl)oxy)hexanoic acid] | markedly suppresses and delays | markedly suppresses and delays | enhanced | entirely prevented |  |  |  |  |  |  |  |  | markedly reduced | improved | trend toward improved | significantly improved | significantly augmented |
